Results taken from ChEMBL document CHEMBL4265904, “Hybrids of arenobufagin and benzoisoselenazol reducing the cardiotoxicity of arenobufagin” (Bioorg Med Chem Lett, 2018).
The source made the active and inactive calls. The calls are words filed in the database; no cut-off is given here.

Key:
[1] = Selectivity index, ratio of IC50 for human AC16 cells to IC50 for human HepG2 cells; assay type: toxicity; details: AC16 cells and HepG2 cells, read-out: Ratio IC50
HepG2 [2] = assay: Antiproliferative activity against human HepG2 cells by MTT assay; assay type: functional, cell-based
HepG2 [3] = assay: Antiproliferative activity against human HepG2 cells after 48 hrs by MTT assay; assay type: functional, cell-based; details: HepG2, 48 h
[4] = Cytotoxic activity against human AC16 cells assessed as cell swelling at 1 uM after 24 hrs by phase contrast microscopic method; assay type: cell-based
[5] = Antiproliferative activity against human AC16 cells by MTT assay; assay type: cell-based
[6] = Antiproliferative activity against human HepG2/ADM cells by MTT assay; assay type: functional, cell-based
[7] = Toxicity in ip dosed Kunming mouse assessed as mortality; assay type: organism-based; details: in vivo
[8] = Cytotoxic activity against human AC16 cells assessed as cell detachment from substratum at 1 uM after 24 hrs by phase contrast microscopic method; assay type: cell-based
Homo sapiens = species on record: Homo sapiens; assay: Cytoprotective activity against H2O2-induced oxidative damage in human AC16 cells at 1 uM preincubated for 30 mins followed by H2O2 addition and measured after 6 hrs; assay type: functional, cell-based
HepG2 [9] = assay: Inhibition of ROS generation in human HepG2 cells at 1 uM after 2 hrs by DCFH-DA staining based method; assay type: functional, cell-based

C[C@]12CC[C@H](O)C[C@H]1CC[C@@H]1[C@@H]2[C@H](O)C(=O)[C@]2(C)[C@@H](c3ccc(=O)oc3)CC[C@]12O
selectivity ratio [1]: 0.25 | IC50 (HepG2 [2]): 20 nM | IC50 (HepG2 [3]): 0.1 to 10 nM | Activity [4]: Toxic | IC50 [5]: 5 nM | IC50 [6]: 56 nM | LD50 [7]: 20 mg/kg | Activity [8]: Toxic

Cc1ccc2c(=O)n(CC(=O)O[C@H]3CC[C@@]4(C)[C@H](CC[C@@H]5[C@@H]4[C@H](O)C(=O)[C@]4(C)[C@@H](c6ccc(=O)oc6)CC[C@]54O)C3)[se]c2c1
selectivity ratio [1]: 3.51 | IC50 (HepG2 [2]): 607 nM | IC50 [5]: 2130 nM | IC50 [6]: 2450 nM

C[C@]12CC[C@H](OC(=O)[C@H](Cc3ccccc3)n3[se]c4ccccc4c3=O)C[C@H]1CC[C@@H]1[C@@H]2[C@H](O)C(=O)[C@]2(C)[C@@H](c3ccc(=O)oc3)CC[C@]12O
selectivity ratio [1]: 9.47 | IC50 (HepG2 [2]): 339 nM | Activity (Homo sapiens): Active | Activity [4]: Non-Toxic | IC50 [5]: 3210 nM | IC50 [6]: 5590 nM | inhibition (HepG2 [9]): Active | Activity [8]: Non-Toxic

O=c1c2ccccc2[se]n1-c1ccccc1
Activity (Homo sapiens): Active

C[C@]12CC[C@H](OC(=O)[C@H](Cc3ccccc3)n3[se]c4cc(C(F)(F)F)ccc4c3=O)C[C@H]1CC[C@@H]1[C@@H]2[C@H](O)C(=O)[C@]2(C)[C@@H](c3ccc(=O)oc3)CC[C@]12O
selectivity ratio [1]: 16.2 | IC50 (HepG2 [2]): 265 nM | Activity (Homo sapiens): Active | Activity [4]: Non-Toxic | IC50 [5]: 4300 nM | IC50 [6]: 9740 nM | inhibition (HepG2 [9]): Active | Activity [8]: Non-Toxic

CC[C@H](C)[C@@H](C(=O)O[C@H]1CC[C@@]2(C)[C@H](CC[C@@H]3[C@@H]2[C@H](O)C(=O)[C@]2(C)[C@@H](c4ccc(=O)oc4)CC[C@]32O)C1)n1[se]c2cc(OC)ccc2c1=O
selectivity ratio [1]: 1.03 | IC50 (HepG2 [2]): 14500 nM | IC50 [5]: 15000 nM | IC50 [6]: 36700 nM

Cc1ccc2c(=O)n([C@@H](Cc3ccccc3)C(=O)O[C@H]3CC[C@@]4(C)[C@H](CC[C@@H]5[C@@H]4[C@H](O)C(=O)[C@]4(C)[C@@H](c6ccc(=O)oc6)CC[C@]54O)C3)[se]c2c1
selectivity ratio [1]: 7.3 | IC50 (HepG2 [2]): 489 nM | Activity (Homo sapiens): Active | Activity [4]: Non-Toxic | IC50 [5]: 3570 nM | IC50 [6]: 7940 nM | Activity [8]: Non-Toxic

COc1ccc2c(=O)n([C@@H](Cc3ccccc3)C(=O)O[C@H]3CC[C@@]4(C)[C@H](CC[C@@H]5[C@@H]4[C@H](O)C(=O)[C@]4(C)[C@@H](c6ccc(=O)oc6)CC[C@]54O)C3)[se]c2c1
selectivity ratio [1]: 7.21 | IC50 (HepG2 [2]): 305 nM | Activity (Homo sapiens): Active | Activity [4]: Non-Toxic | IC50 [5]: 2200 nM | IC50 [6]: 5860 nM | inhibition (HepG2 [9]): Active | Activity [8]: Non-Toxic
